Assay results: US20120010075A1 (priority 2009, published 2012)
Read-outs that look alike come from different tables or passages of the source.

How the values were obtained:
[1] = test system: Alternaria solani; test: Compound 16 and copper materials against tomato early blight (Example 37, Tables 17-20); assay type: in vivo, Alternaria solani on tomato (Outdoor Girl)
[2] = test system: Phytophthora infestans; assay type: in vivo, Phytophthora infestans on tomato (Outdoor Girl)
[3] = test system: Colletotrichum lagenarium; test: Compound 16 and copper materials against cucumber anthracnose (Example 37, Tables 21-24); assay type: in vivo, Colletotrichum lagenarium on cucumber (Bush Pickle)
[4] = test system: Phytophthora capsici; test: In vitro fungitoxicity of hydrazones with and without copper towards Phytophthora capsici (Example 28, Table 3); assay type: cell-based; conditions: 48 h; for % Inhn Plus copper Observed: copper-plus AS medium (CuCl2, 50 μM)
[5] = test system: Leptosphaeria nodorum (glume blotch of wheat); test: Cu-hydrazone complexes versus parent hydrazones against glume blotch of wheat (Example 32, Table 8); assay type: in vivo, Leptosphaeria nodorum on wheat (cultivar Yuma); conditions: Parastagonospora nodorum, 200 ppm spray, inoculated after 24 h
[6] = test system: Leptosphaeria nodorum (LEPTNO); test: Isolated metal-hydrazone complexes versus parent hydrazones, in vitro, Leptosphaeria nodorum (Example 31, Table 7); assay type: cell-based; conditions: Parastagonospora nodorum; 0.1 μg/mL; copper-minus medium; 72 h
[7] = test system: Leptosphaeria nodorum (LEPTNO); test: In vitro fungitoxicity of hydrazones with and without copper towards Leptosphaeria nodorum (Example 26); assay type: cell-based; conditions: 72 h at 25° C.; for LEPTNO % Inhn. Plus Copper Observed: copper-plus medium (CuCl2.2H2O)
[8] = test system: Phytophthora infestans; assay type: in vivo, Phytophthora infestans on tomato; conditions: hydrazone 50 ppm + 50 μM CuCl2.2H2O, applied 24 h before inoculation, assessed 7 days after inoculation, tomato
[9] = test system: Ustilago maydis; test: In vitro fungitoxicity of hydrazones with and without copper towards Ustilago maydis (Example 29, Table 4); assay type: cell-based; conditions: 1 μg/mL, 48 h
[10] = test system: Septoria tritici isolate USA-184; test: In vitro fungitoxicity of hydrazones with and without copper towards Septoria tritici (Example 30, Table 5); assay type: cell-based; conditions: Zymoseptoria tritici, 0.05 μg/mL
[11] = Phytophthora capsici, 0.039 μg/mL, copper-minus AS medium, read-out: % Inhn Minus copper Observed
[12] = Parastagonospora nodorum, 72 h, compound 0.05 μg/mL, copper-minus medium, read-out: LEPTNO % Inhn. Minus Copper Observed

| Structure (SMILES) | % Inhn Plus copper Observed ([4]; 0.039 μg/mL) | inhibition of growth at 0.039 µg/mL [4, 11] | pest or weed control at 200 ppm [5] | inhibition at 0.1 µg/mL [6] | TLB % Control [8] | inhibition of growth at 0.05 µg/mL [7, 12] | LEPTNO % Inhn. Plus Copper Observed ([7]; compound 0.05 μg/mL) | further results |
| --- | --- | --- | --- | --- | --- | --- | --- | --- |
| O=C(N/N=C/c1cc(Cl)cc(Cl)c1O)c1ccccc1 [Compound 16] |  |  |  |  |  |  |  | % Control of Tomato Early Blight ([1]; hydrazone 10 μM alone): 3.9%; % Control of Tomato Early Blight ([1]; hydrazone 50 μM alone): 8%; % Control of Tomato Early Blight ([1]; hydrazone 200 μM alone): 28.4%; % Control of Tomato Early Blight ([1]; hydrazone 400 μM alone): 32.4%; % Control of Tomato Late Blight ([2]; hydrazone 10 μM alone): 1.5%; % Control of Tomato Late Blight ([2]; hydrazone 50 μM alone): 11.3%; % Control of Tomato Late Blight ([2]; hydrazone 200 μM alone): 21.4%; % Control of Tomato Late Blight ([2]; hydrazone 400 μM alone): 25.7%; % Control of Cucumber Anthracnose ([3]; hydrazone 10 μM alone): 10%; % Control of Cucumber Anthracnose ([3]; hydrazone 50 μM alone): 33.8%; % Control of Cucumber Anthracnose ([3]; hydrazone 200 μM alone): 63.8%; % Control of Cucumber Anthracnose ([3]; hydrazone 400 μM alone): 70.8% |
| O.O.[Cl][Cu][Cl] [CuCl2•2H2O] |  |  |  |  |  |  |  | % Control of Tomato Early Blight ([1]; copper material 10 μM alone): 0.0%; % Control of Tomato Early Blight ([1]; copper material 50 μM alone): 0.0%; % Control of Tomato Early Blight ([1]; copper material 200 μM alone): 50.4%; % Control of Tomato Early Blight ([1]; copper material 400 μM alone): 72.5%; % Control of Tomato Early Blight ([1]; copper material 800 μM alone): 83.3%; % Control of Cucumber Anthracnose ([3]; copper material 10 μM alone): 9.6%; % Control of Cucumber Anthracnose ([3]; copper material 50 μM alone): 1.4%; % Control of Cucumber Anthracnose ([3]; copper material 200 μM alone): 37.2%; % Control of Cucumber Anthracnose ([3]; copper material 400 μM alone): 76.2%; % Control of Cucumber Anthracnose ([3]; copper material 800 μM alone): 90.0% |
| O.O.O.O.O.O=S(=O)([O-])[O-].[Cu+2] [CuSO4•5H2O] |  |  |  |  |  |  |  | % Control of Tomato Early Blight ([1]; copper material 10 μM alone): 0.0%; % Control of Tomato Early Blight ([1]; copper material 50 μM alone): 7.1%; % Control of Tomato Early Blight ([1]; copper material 200 μM alone): 54.4%; % Control of Tomato Early Blight ([1]; copper material 400 μM alone): 64.1%; % Control of Tomato Early Blight ([1]; copper material 800 μM alone): 71.6%; % Control of Cucumber Anthracnose ([3]; copper material 10 μM alone): 1.4%; % Control of Cucumber Anthracnose ([3]; copper material 50 μM alone): 0.0%; % Control of Cucumber Anthracnose ([3]; copper material 200 μM alone): 61.3%; % Control of Cucumber Anthracnose ([3]; copper material 400 μM alone): 75.7%; % Control of Cucumber Anthracnose ([3]; copper material 800 μM alone): 87.1% |
| O=C(N/N=C/c1cc(Cl)cc(Cl)c1O)c1c(Cl)cccc1Cl [Example 43] | 90.3% | 54.2% | 0% | 3.6% | 68.8% |  |  | inhibition of growth at 0.156 µg/mL ([7]; Parastagonospora nodorum, 72 h, compound 0.156 μg/mL, copper-minus medium, read-out: LEPTNO % Inhn. Minus Copper Observed): 14.2%; LEPTNO % Inhn. Plus Copper Observed ([7]; compound 0.156 μg/mL): 75.4%; melting point: 250 to 252 °C |
| O=C(N/N=C/c1cc(Cl)cc(Cl)c1O)c1ccccc1O [Example 69] |  |  | 25% | 32.4% | 90.8% | 19.3% | 96.9% | % Inhn. Plus copper Observed ([9]; copper-plus medium (CuCl2, 10 μM)): 96.2%; inhibition of growth at 1 µg/mL ([9]; Mycosarcoma maydis, copper-minus medium, read-out: % Inhn. Minus copper Observed): 0%; inhibition at 0.05 µg/mL ([10]; Colby formula, CuCl2, read-out: % Inhibition Plus copper Predicted): 0%; inhibition at 0.05 µg/mL ([10]; copper-minus medium, 90 h, read-out: % Inhibition Minus copper Observed): 0%; inhibition at 0.05 µg/mL ([10]; copper-plus medium CuCl2, 90 h, read-out: % Inhibition Plus copper Observed): 96.7%; % Inhn Plus copper Observed ([4]; 0.050 μg/mL): 87.6%; inhibition of growth at 0.05 µg/mL ([4]; Phytophthora capsici, 0.050 μg/mL, copper-minus AS medium, read-out: % Inhn Minus copper Observed): 0% |
| O=C(N/N=C/c1cc(Cl)cc(Cl)c1O)c1cccc(Cl)c1 [Example 70] |  |  | 0% | 29.4% | 93.1% | 19.6% | 98.2% |  |
| O=C(N/N=C/c1cc(Cl)cc(Cl)c1O)c1ccc([N+](=O)[O-])cc1 [Example 76] |  |  | 0% | 92.8% | 89.8% | 0% | 97.0% |  |
| Cc1ccccc1C(=O)N/N=C/c1cc(Cl)cc(Cl)c1O [Example 77] |  |  | 0% | 10.6% | 55.5% | 7.6% | 96.1% |  |
| O=C(N/N=C/c1cc(Cl)cc(Cl)c1O)c1cc(Cl)ccc1Cl [Example 83] | 96.2% | 27.9% | 38% | 27.9% | 60.6% | 5.9% | 98.0% | melting point: 189 to 191 °C |
| O=C(N/N=C/c1cc(Cl)cc(Cl)c1O)c1ccccc1Br [Example 84] | 95.0% | 47.5% | 37% | 6.7% | 83.6% | 5.6% | 95.5% |  |
| O=C(N/N=C/c1cc(Cl)cc(Cl)c1O)c1ccccc1[N+](=O)[O-] [Example 96] | 91.9% | 55.2% | 0% | 10.7% | 78.2% | 1.2% | 93.6% |  |
| O=C(N/N=C/c1cc(Cl)cc(Cl)c1O)c1ccc(OC(F)(F)F)cc1 [Example 100] | 88.8% | 10% | 0% | 24.7% | 74.2% | 8.2% | 97.0% | melting point: 220 to 229 °C |
